# Reference: ChEMBL document CHEMBL1201862, “PubChem BioAssay data set” (2004)
# Calls of active or inactive are those of the source.
# Key:
# [1] = insulin promoter down-regulators in MIN6 cells, imaging, high-content screening, mouse beta cells (AID 1628); assay type: functional
# [2] = test system: INS1; test: beta cell apoptosis inhibitors, cytokine rescue, dose response, luminescence, retest (AID 449756); assay type: functional, cell-based; conditions: Rattus norvegicus;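 note: cell death triggered by IL-1 beta plus TNF-alpha plus IFN-gamma mixture; protective hits raise ATP signal compared with cytokine alone wells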
# [3] = NIH-3T3 fibroblast cytotoxicity, dose response, cytotoxicity control, cell-based, fluorescence, Alamar Blue, secondary assay (AID 2327); assay type: functional;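 note: NIH-3T3 mouse fibroblasts cultured with fluconazole at 8 µg/mL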
# [4] = test system: A-375; test: MITF: Counter assay: A375 proliferation Measured in Cell-Based System Using Plate Reader - 2084-03_Inhibitor_Dose_DryPowder_Activity. [Related pubchem assays (depositor defined):AID488944]; assay type: functional; conditions: Homo sapiens
# [5] = biological target: T1, Microphthalmia-associated transcription factor (Homo sapiens, UniProt O75030); test: TRPM1 promoter luciferase signal decrease, dose response, MITF inhibitor project, cell-based, SK-MEL-5, cherry-picked, set 3 (AID 493073); assay type: functional
# T1 sequence (O75030 whole entry): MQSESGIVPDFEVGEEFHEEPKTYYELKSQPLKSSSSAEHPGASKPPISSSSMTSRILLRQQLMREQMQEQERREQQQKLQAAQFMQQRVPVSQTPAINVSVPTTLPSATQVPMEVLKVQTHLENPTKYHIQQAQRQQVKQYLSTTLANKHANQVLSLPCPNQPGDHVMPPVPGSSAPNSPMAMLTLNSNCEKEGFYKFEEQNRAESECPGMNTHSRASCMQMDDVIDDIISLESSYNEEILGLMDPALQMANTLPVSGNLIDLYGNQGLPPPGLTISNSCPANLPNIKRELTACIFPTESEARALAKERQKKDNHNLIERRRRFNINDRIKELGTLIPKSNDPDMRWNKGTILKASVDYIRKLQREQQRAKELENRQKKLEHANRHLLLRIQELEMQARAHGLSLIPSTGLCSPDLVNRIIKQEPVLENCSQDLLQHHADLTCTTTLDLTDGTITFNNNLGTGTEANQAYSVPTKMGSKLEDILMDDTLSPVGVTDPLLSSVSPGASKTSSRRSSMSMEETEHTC
# [6] = C. albicans growth with fluconazole, confirmation, fluorescence, retest (AID 2467); assay type: functional, cell-based
# [7] = cytotoxicity in MIN6 insulinoma cells, dose response, cytotoxicity control, cell-based, mouse insulinoma (AID 2122); assay type: functional;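 note: confirmatory high-throughput counterscreen run to flag cytotoxic compounds; mouse MIN-6 beta cells carrying an insulin promoter eGFP reporter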
# [8] = test system: HEK293; test: cells; assay type: functional, cell-based; conditions: Homo sapiens
# [9] = biological target: Nuclear receptor subfamily 0 group B member 1 (Homo sapiens, UniProt P51843); test: Luminescence-based cell-based high throughput dose response assay for inhibitors of the orphan nuclear receptor subfamily 0, group B, member 1 (DAX1; NR0B1). [Related pubchem assays (depositor defined):AID504766, AID504790]; assay type: functional
# [10] = test system: Jurkat; test: antigen receptor-induced NF-kB inhibitors, dose response, Jurkat, luciferase reporter, luminescence, B- and T-cell (AID 489004); assay type: functional, cell-based; conditions: Homo sapiens;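 note: NF-kB luciferase reporter Jurkat cells stimulated with PMA plus ionomycin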
# [11] = HepG2 cell cytotoxicity, dose response, cytotoxicity control for Shn3 inhibitor project, CellTiter-Glo, cherry-picked (AID 624134); assay type: functional, cell-based
# [12] = Shn3 3'UTR reporter inhibitors, dose response, cell-based, Clone20 osteoblasts, firefly luciferase, cherry-picked (AID 624132); assay type: functional;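 note: firefly luciferase luminescence from reporter carrying the Shn3 3'UTR in osteoblasts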
# [13] = cytotoxicity in HEK-293T NF-kB-Luc cells, dose response, cytotoxicity control for B/T-cell NF-kB inhibitor project, cell-based, uHTS hits (AID 489019); assay type: functional;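 note: IC50 reflects cytotoxicity as loss of cell viability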
# [14] = biological target: Photoreceptor-specific nuclear receptor (Homo sapiens, UniProt Q9Y5X4); assay type: functional, cell-based;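 note: CHO-S cells with Gal4-NCOR and VP16-NR2E3 two-hybrid luciferase reporter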
# [15] = control 3'UTR Renilla luciferase suppression, dose response, counter-screen for Shn3 inhibitor project, cell-based, Clone20-Shn3RL, cherry-picked (AID 624133); assay type: functional
# [16] = biological target: T2, Short transient receptor potential channel 4 (Mus musculus, UniProt Q9QUQ5); test: TRPC4 inhibition under acetylcholine activation, SAR follow-up, cell-based, acetylcholine stimulus, HEK293 TRPC4, Fluo-4 (AID 492996); assay type: functional
# T2 sequence (Q9QUQ5 whole entry): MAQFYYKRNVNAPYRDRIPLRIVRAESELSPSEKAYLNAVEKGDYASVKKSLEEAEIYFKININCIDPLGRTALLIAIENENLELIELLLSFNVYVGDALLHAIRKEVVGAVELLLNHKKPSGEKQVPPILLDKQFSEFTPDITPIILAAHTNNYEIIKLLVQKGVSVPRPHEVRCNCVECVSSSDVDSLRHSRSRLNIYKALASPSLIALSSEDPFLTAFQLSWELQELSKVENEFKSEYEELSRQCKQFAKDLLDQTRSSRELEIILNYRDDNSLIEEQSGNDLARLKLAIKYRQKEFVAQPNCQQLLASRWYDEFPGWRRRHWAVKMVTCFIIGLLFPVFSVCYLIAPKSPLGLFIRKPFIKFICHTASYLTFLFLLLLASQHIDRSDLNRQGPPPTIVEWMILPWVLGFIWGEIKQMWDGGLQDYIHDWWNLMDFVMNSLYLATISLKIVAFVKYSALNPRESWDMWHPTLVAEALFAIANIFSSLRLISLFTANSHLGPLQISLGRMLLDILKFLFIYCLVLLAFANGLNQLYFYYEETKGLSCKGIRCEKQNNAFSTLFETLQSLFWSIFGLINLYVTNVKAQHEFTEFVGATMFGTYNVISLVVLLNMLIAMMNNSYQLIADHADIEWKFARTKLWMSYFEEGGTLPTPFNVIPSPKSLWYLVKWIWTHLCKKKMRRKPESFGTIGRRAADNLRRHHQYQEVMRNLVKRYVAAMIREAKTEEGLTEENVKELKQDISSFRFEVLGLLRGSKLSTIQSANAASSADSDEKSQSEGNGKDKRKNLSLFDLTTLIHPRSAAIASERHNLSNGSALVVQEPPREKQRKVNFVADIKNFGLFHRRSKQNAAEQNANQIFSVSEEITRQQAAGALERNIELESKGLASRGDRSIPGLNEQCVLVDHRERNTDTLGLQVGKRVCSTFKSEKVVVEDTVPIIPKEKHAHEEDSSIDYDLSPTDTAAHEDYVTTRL
# [17] = test system: INS1; test: protection from cytokine-driven beta-cell apoptosis, dose response, JC-1 fluorescence, INS-1E, dry powder, set 2 (AID 488867); assay type: functional, cell-based; conditions: Rattus norvegicus
# [18] = test system: INS1; test: protection of INS-1E cells from cytokine death, dose response, ATP luminescence, dry powder (AID 488844); assay type: functional, cell-based; conditions: Rattus norvegicus
# [19] = inhibitors of cytokine-induced nitrite release, dose response, cell-based, Griess absorbance, INS-1E, dry powder, set 3 (AID 488870); assay type: functional; conditions: Rattus norvegicus
# Sequence of Nuclear receptor subfamily 0 group B member 1 (P51843 whole entry): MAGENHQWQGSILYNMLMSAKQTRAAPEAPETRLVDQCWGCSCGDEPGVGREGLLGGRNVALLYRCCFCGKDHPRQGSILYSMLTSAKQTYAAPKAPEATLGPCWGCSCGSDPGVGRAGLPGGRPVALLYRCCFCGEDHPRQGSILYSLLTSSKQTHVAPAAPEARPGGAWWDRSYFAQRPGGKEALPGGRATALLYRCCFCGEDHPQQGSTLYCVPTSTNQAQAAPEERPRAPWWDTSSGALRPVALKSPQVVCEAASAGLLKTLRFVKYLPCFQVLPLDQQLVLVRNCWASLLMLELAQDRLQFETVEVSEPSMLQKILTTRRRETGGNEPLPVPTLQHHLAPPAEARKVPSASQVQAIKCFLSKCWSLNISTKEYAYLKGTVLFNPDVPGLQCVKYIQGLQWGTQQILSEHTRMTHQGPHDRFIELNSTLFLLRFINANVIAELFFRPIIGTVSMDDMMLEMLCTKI
# Sequence of Photoreceptor-specific nuclear receptor (Q9Y5X4 whole entry, the tested form may be a part): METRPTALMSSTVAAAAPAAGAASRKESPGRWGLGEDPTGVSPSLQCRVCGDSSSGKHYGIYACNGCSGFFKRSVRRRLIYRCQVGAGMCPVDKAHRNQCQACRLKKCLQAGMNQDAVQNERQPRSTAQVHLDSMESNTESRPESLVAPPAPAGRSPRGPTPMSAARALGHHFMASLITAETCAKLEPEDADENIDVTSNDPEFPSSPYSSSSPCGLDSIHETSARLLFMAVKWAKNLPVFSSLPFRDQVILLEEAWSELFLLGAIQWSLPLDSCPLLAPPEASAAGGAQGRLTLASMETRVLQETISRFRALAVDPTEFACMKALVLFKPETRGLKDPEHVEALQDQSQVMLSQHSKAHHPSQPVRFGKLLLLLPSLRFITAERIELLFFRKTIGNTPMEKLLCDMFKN
smiles,measurement,setting,value
COc1ccc(-c2c[n+](CC(=O)OC3CC(C)CCC3C(C)C)c3n2CCC3)cc1 (centres undefined),IC50,[1],< 0.25 µM (active)
same,AC50,[2],1.78 µM (active)
same,EC50,[3],> 150 µM (inactive)
same,AC50,[4],35 µM (active)
same,AC50,[5],4.87 µM (active)
same,EC50,[6],0.894 µM (active)
same,IC50,[7],< 0.25 µM (active)
Nn1c(SCc2c(F)cccc2F)nnc1-c1ccccn1,IC50,[8],> 67.6 µM (inactive)
same,IC50,[9],> 67.6 µM (inactive)
Cc1cc2sc3ccc(C#CC4(O)CCCCC4)cc3c(=O)c2cc1C,IC50,[10],< 0.16 µM (active)
same,AC50,[11],42 µM (active)
same,AC50,[12],< 0.26 µM (active)
same,IC50,[13],> 80 µM (inactive)
same,IC50,[14],0.0182 µM (active)
same,AC50,[15],25 µM (active)
Cc1cc(N2CCN(C)CC2)nc2ccccc12,IC50,[16],31.7 µM (active)
Cc1ccc(S(=O)(=O)N(C)C[C@@H]2Oc3c(NC(=O)Nc4ccc(F)cc4)cccc3C(=O)N([C@H](C)CO)C[C@H]2C)cc1,AC50,[17],106 µM (active)
same,AC50,[18],73.9 µM (active)
same,AC50,[19],63.4 µM (active)
